The text below walks through data of EP4768487A1, “FUSED LACTAM RING COMPOUND AND USE THEREOF” (Chengdu Zenitar Biomedical Technology Co., Ltd., priority 2023, dated 2025).

Data set [1] is described as follows: Pharmacokinetic evaluation in Balb/c mice. Type of data set: in vivo. The note with it: 1mg/kg, PO; for AUC(0-t) / Cmax / half-life: male, mouse, plasma. How it is done: Experimental objective: To understand the pharmacokinetic profiles of the compounds. Experimental basis: Technical guidelines for non-clinical pharmacokinetic studies of chemical drugs, 2014.
Experimental scheme: The pharmacokinetic profiles of the compounds were investigated by intravenous administration (1 mg·kg^-1) and intragastric administration (1 mg·kg^-1) in Balb/c mice.
Sample preparation: About 0.2 mg of the compound was weighed out and dissolved in 10 µL of DMSO, and then a sodium chloride solution for injection was added to prepare a 0.1 mg·mL^-1 compound solution for later administration.
Three of the mice were subjected to intravenous administration (IV) at 1 mg·kg^-1, while the other three were subjected to intragastric administration (PO) at 1 mg·kg^-1. About 0.05 mL of blood was collected at 5 min, 15 min, 30 min, 1 h, 2 h, 4 h, 6 h, 8 h, 10 h, 24 h, and 48 h after administration. The collected blood was centrifuged at 3500 rpm for 15 min. The supernatant plasma was then collected and cryopreserved at -40 °C for later analysis. The plasma concentration was quantitatively analyzed using the LC-MS/MS method, and pharmacokinetic parameters such as […] (Cmax), area under plasma concentration-time curve (AUC(0-t)), half-life (T1/2), clearance rate (CL), tissue distribution (Vdss), and bioavailability (F) were calculated. Table 18. Results of pharmacokinetic test of compounds in Balb/c mice

Data set [2] deals with BRCA wild-type DLD-1 cells. In words: Anti-proliferative activity against cells (CCK8): DLD-1. Type of data set: cell-based. The note with it: Homo sapiens, 72 h + 96 h culture. In a few lines:
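DLD-1 cells (1000/well) in RPMI-1640 with 10% FBS, treated 24 h after plating with PARPi at 0, 1 or 10 µM final. Cultured 72 h, medium exchanged with re-added PARPi, then a further 96 h; read-out by CCK8.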

For data set [3], the system named is CD34+ hematopoietic stem and progenitor cells (hmPB34-P-SC). In words: Hematological toxicity assay (CellTiter-Glo 2.0). The format is cell-based. The following applies: 120 h; 5 days of culture. How it is done:
The next day, the cells were resuspended and seeded in a 96-well plate at a concentration of 1000 cells/well, and meanwhile, different concentrations of the drug were added for treatment, with 3 replicate wells set for each concentration. After 5 days of culture, the number of viable cells in each well was determined using a CellTiter-Glo 2.0 kit, followed by detection by a microplate reader.
In general terms: In ATP-based viability assays light output follows the ATP content of the culture.

Data set [4] concerns the target T1, hERG potassium ion channel (Homo sapiens, UniProt Q12809).
T1 construct: expressed in transfected cells; host or cells: CHO cells
The data set is described as follows: Inhibition of hERG potassium ion channel (Qpatch, CHO cells stably expressing hERG). Type of data set: cell-based. The note with it: for inhibitory effects on the hERG potassium ion channel (in words): conclusion of Table 17; for inhibition at 2.5 min, 20 µM: human, CHO cells stably expressing hERG, read-out: Inhibition rate at 20 µM. As for the experimental part: Cell culture and treatment: CHO cells stably expressing hERG were cultured in a cell culture flask and incubated in an incubator with 5% CO2 at 37 °C. When the cell density reached 60%-80%, the cell culture medium was removed by pipetting. The cells were washed once with PBS, and then Detachin was added for detachment. After complete detachment, a culture medium was added for neutralization. The cells were then centrifuged, and the supernatant was removed by pipetting. A culture medium was further added for resuspension, and the cell density was adjusted to (2-5) × 10^6 cells/mL for later use.
Compound preparation: The compound stock solution was diluted with 100% DMSO. Specifically, 10 µL of the compound stock solution was added to 20 µL of DMSO, followed by a 3-fold serial dilution to obtain 6 concentrations. 4 µL of each of the 6 compound solutions at different concentrations was taken and added to 396 µL of an extracellular fluid, resulting in a 100-fold dilution to obtain 6 intermediate concentrations. Then, 80 µL of each of the 6 intermediate-concentration compound solutions was taken and added to 320 µL of an extracellular fluid, resulting in a 5-fold dilution to achieve the final test concentrations. The highest test concentration was 40 µM. […] DMSO at this concentration has no effect on the hERG potassium channel. During the compound preparation, the entire dilution process was completed by a Bravo instrument.
Electrophysiological recording process: The single-cell high-impedance sealing and whole-cell mode formation processes were all completed automatically by a Qpatch instrument. After achieving the whole-cell recording mode, the cells were clamped at -80 mV. Before a 5-second +40 mV depolarizing stimulus was applied, a 50-millisecond -50 mV prepulse voltage was first applied. The potential was then repolarized to -50 mV and held for 5 s, and finally returned to -80 mV. This voltage stimulation was applied every 15 s. After 2 min of recording, the extracellular fluid was administered, followed by recording for 5 min. Then, the compound administration process began, starting from the lowest test compound concentration. Each test concentration was applied for 2.5 min. After all the concentrations were applied consecutively, the positive control compound, 3 µM Cisapride, was administered. At least 3 cells (n ≥ 3) were tested for each concentration.
Data processing: Data analysis and processing were performed using GraphPad Prism 5.0 and Excel software. The IC50 of the compound was calculated using GraphPad Prism 5 software by equation fitting as follows: Y = Bottom + (Top−Bottom)/(1+10^(∧)((LogIC50−X)*HillSLope)) [formula] where X is the Log value of the test concentration of the test sample, Y is the inhibition percentage at the corresponding concentration, and Bottom and Top are the minimum and maximum inhibition percentages, respectively. Table 17. Results of inhibition of hERG potassium ion channel by compounds
Background: The hERG channel carries a current that helps repolarise heart muscle cells.

T1 sequence (Q12809 whole entry): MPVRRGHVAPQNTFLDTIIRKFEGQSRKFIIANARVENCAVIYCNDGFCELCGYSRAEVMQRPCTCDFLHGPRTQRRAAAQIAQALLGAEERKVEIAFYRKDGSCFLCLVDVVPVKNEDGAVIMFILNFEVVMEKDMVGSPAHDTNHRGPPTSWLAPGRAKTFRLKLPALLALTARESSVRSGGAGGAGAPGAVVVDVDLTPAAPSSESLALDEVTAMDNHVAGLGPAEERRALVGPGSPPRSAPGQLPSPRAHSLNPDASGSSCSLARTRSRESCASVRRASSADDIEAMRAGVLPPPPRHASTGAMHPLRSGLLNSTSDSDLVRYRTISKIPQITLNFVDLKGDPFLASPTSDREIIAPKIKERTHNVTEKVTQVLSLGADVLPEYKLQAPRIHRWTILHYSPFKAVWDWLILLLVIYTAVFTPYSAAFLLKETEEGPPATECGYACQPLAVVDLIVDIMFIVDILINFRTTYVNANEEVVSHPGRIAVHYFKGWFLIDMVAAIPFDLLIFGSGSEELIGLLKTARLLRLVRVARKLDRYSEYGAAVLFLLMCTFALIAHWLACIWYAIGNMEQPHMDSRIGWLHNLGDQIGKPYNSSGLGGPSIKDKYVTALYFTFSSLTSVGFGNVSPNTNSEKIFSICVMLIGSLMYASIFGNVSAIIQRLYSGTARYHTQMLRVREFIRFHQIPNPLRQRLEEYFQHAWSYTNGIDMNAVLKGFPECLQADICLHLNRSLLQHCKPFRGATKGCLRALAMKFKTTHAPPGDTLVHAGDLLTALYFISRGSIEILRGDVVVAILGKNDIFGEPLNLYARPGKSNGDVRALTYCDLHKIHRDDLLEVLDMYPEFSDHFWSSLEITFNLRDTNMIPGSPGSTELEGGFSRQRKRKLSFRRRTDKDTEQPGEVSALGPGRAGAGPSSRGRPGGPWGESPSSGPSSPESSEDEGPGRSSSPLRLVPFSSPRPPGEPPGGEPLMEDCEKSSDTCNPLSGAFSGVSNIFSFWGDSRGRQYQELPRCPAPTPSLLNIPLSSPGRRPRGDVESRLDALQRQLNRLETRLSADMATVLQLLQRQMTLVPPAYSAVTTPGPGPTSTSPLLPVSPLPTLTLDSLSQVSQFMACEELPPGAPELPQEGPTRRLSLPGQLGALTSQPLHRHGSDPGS

By AUC(0-t) is commonly meant the area under the concentration-time curve up to a stated or last time point. For orientation: Cmax means the highest concentration seen after dosing. As a reminder, the half-life is the time in which the quantity being followed falls by half. The low end stands for fast loss, the high end for slow loss. What is called IC50 is the concentration at which inhibition is half-maximal. As usually defined, the inhibition is the relative decrease from the control value, in per cent. Turning to `CNC(=O)c1ccc(N2CCN(C[C@H]3CCc4nc(C)c(=O)[nH]c4C3)CC2)c(F)n1` [Example 45, (S)-6-Fluoro-N-methyl-5-(4-((2-methyl-3-oxo-3,4,5,6,7,8-hexahydroquinoxaline-6-yl)methyl)piperazin-1-yl)picolinamide], in data set [1], the CL was 9.83 mL/min/kg, the Vdss was 6.85 L/kg, the AUC(0-t) was found to be 1540 ng·h/mL and the concentration peaked (Cmax) at 359 ng/mL. In data set [1], the half-life is 7.98 h. The IC50 in data set [2] was over 1000 nM. In addition, it took 331 nM to reach half-maximal inhibition in data set [3] (IC50). Besides, in data set [4], the “inhibitory effects on the hERG potassium ion channel (in words)” value (“inhibitory effects” below) was “Conclusion: Compounds 2, 6, 45, 62, 67, 74, 83, 87, etc., of the present disclosure exhibited relatively weak inhibitory effects on the hERG potassium ion channel” and the inhibition at 2.5 min, 20 µM amounted to 13%.

In data set [1], `CNC(=O)c1ccc(N2CCN(CC3Cc4[nH]c(=O)c(C)cc4CO3)CC2)c(Cl)n1` (centres unmarked) [Example 74, 6-Chloro-N-methyl-5-(4-((3-methyl-2-oxo-1,5,7,8-tetrahydro-2H-pyrano[4,3-b]pyridin-7-yl)methyl)piperazin-1-yl)picolinamide] gave a Vdss of 1.06 L/kg, an AUC(0-t) of 17100 ng·h/mL, a Cmax of 2350 ng/mL and a half-life of 2.52 h. For the same molecule, in data set [2], the IC50 is over 1000 nM. The same molecule yielded an IC50 in data set [3] of over 1000 nM. In data set [4], the “inhibitory effects” value is listed as “Conclusion: Compounds 2, 6, 45, 62, 67, 74, 83, 87, etc., of the present disclosure exhibited relatively weak inhibitory effects on the hERG potassium ion channel” and the inhibition at 2.5 min, 20 µM is 17.7%.

On to `CCc1cc2c([nH]c1=O)CC(CN1CCN(c3ccc(C(=O)NC)nc3F)CC1)OC2` (centres unmarked) [Compound 2, 5-(4-((3-Ethyl-2-oxo-1,5,7,8-tetrahydro-2H-pyrano[4,3-b]pyridin-7-yl)methyl)piperazin-1-yl)-6-fluoro-N-methyl picolinamide], for which, in data set [1], the CL amounted to 3.17 mL/min/kg, the Vdss was 0.38 L/kg, the AUC(0-t) came out at 5400 ng·h/mL and the peak level (Cmax) was 2350 ng/mL. This molecule showed a half-life in data set [1] of 1.36 h. Besides, the half-inhibitory concentration (IC50) in data set [2] is over 1000 nM. For the same molecule, in data set [3], the IC50 was found to be 738 nM. Also, in data set [4], the “inhibitory effects” value is reported as “Conclusion: Compounds 2, 6, 45, 62, 67, 74, 83, 87, etc., of the present disclosure exhibited relatively weak inhibitory effects on the hERG potassium ion channel” and the inhibition at 2.5 min, 20 µM was determined as 6.7%.
